Test results from PubChem BioAssay (NCI).
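Values below derive from 48-hour exposures of cells grown in 96-well plates, with endpoints linearly interpolated between the two concentrations bracketing the appropriate inhibition level. GI50 is the concentration that inhibits growth by half. Definition used: TGI = concentration required for complete inhibition of growth.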

Assays:
Experiment in all cases: NCI-60 cell line screen, 48 h
DLD-1 colon = system: DLD-1 colon
KM20L2 colon = system: KM20L2 colon
SNB-78 CNS = system: SNB-78 CNS
LXFL 529 NSCLC = system: LXFL 529 NSCLC
RXF-631 renal = system: RXF-631 renal
XF 498 CNS = system: XF 498 CNS

Question: For `O=[S@@]1Nc2ccc(Br)cc2S1`, which TGI (DLD-1 colon) is on record?
Answer: The TGI was over 100 µM.

Question: What about the TGI (KM20L2 colon) of the same molecule?
Answer: The TGI was over 100 µM.

Question: And the TGI (SNB-78 CNS)?
Answer: Its TGI is over 100 µM.

Question: What about the TGI (LXFL 529 NSCLC) of the same molecule?
Answer: Its TGI is over 100 µM.

Question: And the TGI (RXF-631 renal)?
Answer: Its TGI is over 100 µM.

Question: What about the TGI (XF 498 CNS) of the same molecule?
Answer: Its TGI is over 100 µM.

Question: With `CCOC(=O)COc1cccc2c1C(=O)CCO2` as the molecule, how does the TGI (DLD-1 colon) read?
Answer: The TGI was over 100 µM.

Question: And the TGI (KM20L2 colon)?
Answer: Its TGI is over 100 µM.

Question: What about the TGI (SNB-78 CNS) of the same molecule?
Answer: Its TGI is over 100 µM.

Question: What about the TGI (LXFL 529 NSCLC) of the same molecule?
Answer: Its TGI is over 100 µM.

Question: And the TGI (RXF-631 renal)?
Answer: Its TGI is over 100 µM.

Question: What about the TGI (XF 498 CNS) of the same molecule?
Answer: The TGI was over 100 µM.

Question: `CC(=O)OC1COC(n2c(=S)n(-c3ccc(C)cc3)c(=O)c3ccccc32)C(OC(C)=O)C1OC(C)=O` (stereo not given) was tested. Which TGI (DLD-1 colon) did it give?
Answer: The TGI was over 100 µM.

Question: And the TGI (KM20L2 colon)?
Answer: Its TGI is over 100 µM.

Question: And the TGI (SNB-78 CNS)?
Answer: The TGI was over 100 µM.

Question: And the TGI (LXFL 529 NSCLC)?
Answer: Its TGI is over 100 µM.

Question: And the TGI (RXF-631 renal)?
Answer: The TGI was over 100 µM.

Question: What about the TGI (XF 498 CNS) of the same molecule?
Answer: Its TGI is over 100 µM.

Question: Which TGI (DLD-1 colon) does the source give for `COc1ccc2nc3cc(Cl)ccc3c(Sc3ccccc3[N+](=O)[O-])c2c1` here?
Answer: The TGI was over 100 µM.

Question: What about the TGI (KM20L2 colon) of the same molecule?
Answer: Its TGI is over 100 µM.

Question: What about the TGI (SNB-78 CNS) of the same molecule?
Answer: Its TGI is over 100 µM.

Question: And the TGI (LXFL 529 NSCLC)?
Answer: Its TGI is over 100 µM.

Question: What about the TGI (RXF-631 renal) of the same molecule?
Answer: Its TGI is over 100 µM.

Question: What about the TGI (XF 498 CNS) of the same molecule?
Answer: Its TGI is 97.8 µM.

Question: Which results are given for `COc1cccc(NC(=O)CC(=O)n2nc(C)c(N=Nc3ccccc3)c2C)c1`?
Answer: TGI (DLD-1 colon): > 100 µM; TGI (SNB-78 CNS): > 100 µM; TGI (LXFL 529 NSCLC): > 100 µM; TGI (RXF-631 renal): > 100 µM; TGI (XF 498 CNS): > 100 µM

Question: Which TGI (DLD-1 colon) does the source give for `C/C(CCn1[nH]c(=O)ccc1=O)=N\O` here?
Answer: The TGI was over 100 µM.

Question: And the TGI (KM20L2 colon)?
Answer: The TGI was over 100 µM.

Question: And the TGI (SNB-78 CNS)?
Answer: Its TGI is over 100 µM.

Question: What about the TGI (LXFL 529 NSCLC) of the same molecule?
Answer: The TGI was over 100 µM.

Question: What about the TGI (RXF-631 renal) of the same molecule?
Answer: Its TGI is over 100 µM.

Question: And the TGI (XF 498 CNS)?
Answer: Its TGI is over 100 µM.

Question: How did the TGI (DLD-1 colon) turn out when `O=C(N/C(=C\c1cc(Cl)ccc1Cl)c1nc2[nH]c(=S)[nH]c(=O)c2[nH]1)c1ccccc1` was run?
Answer: The TGI was over 64.7 µM.

Question: What about the TGI (KM20L2 colon) of the same molecule?
Answer: The TGI was over 100 µM.

Question: What about the TGI (SNB-78 CNS) of the same molecule?
Answer: The TGI was over 100 µM.

Question: What about the TGI (LXFL 529 NSCLC) of the same molecule?
Answer: The TGI was 45.2 µM.

Question: What about the TGI (RXF-631 renal) of the same molecule?
Answer: Its TGI is over 82.7 µM.

Question: What about the TGI (XF 498 CNS) of the same molecule?
Answer: The TGI was over 100 µM.

Question: Which TGI (DLD-1 colon) does the source give for `CC1(C)COC(c2ccc(C(F)(F)F)cc2C(O)c2ccc3ccccc3c2)=N1` (stereo not given) here?
Answer: The TGI was over 10 µM.

Question: And the GI50 (KM20L2 colon)?
Answer: The GI50 was over 100 µM.

Question: What about the TGI (KM20L2 colon) of the same molecule?
Answer: Its TGI is over 100 µM.

Question: And the GI50 (SNB-78 CNS)?
Answer: Its GI50 is over 10 µM.

Question: And the TGI (SNB-78 CNS)?
Answer: Its TGI is over 100 µM.

Question: And the GI50 (LXFL 529 NSCLC)?
Answer: The GI50 was over 100 µM.

Question: And the TGI (LXFL 529 NSCLC)?
Answer: The TGI was over 100 µM.

Question: What about the TGI (RXF-631 renal) of the same molecule?
Answer: The TGI was over 100 µM.

Question: And the TGI (XF 498 CNS)?
Answer: The TGI was over 100 µM.
